Data: patent EP0359745B1, “GROWTH FACTOR RECEPTOR” (IMPERIAL CANCER RESEARCH TECHNOLOGY LIMITED, priority 1987, dated 1988)
Non-standard residues stand in square brackets, D forms with d. Residues, ends and D or L forms follow the SMILES beside them.

Tests used:
Mr 75000-85000 protein [1] = biological target: T1, Mr 75000-85000 protein (Mus musculus, UniProt P21729); test: ¹²⁵I-GRP affinity labelling (EGS cross-linking) of the Mr 75000-85000 protein in Swiss 3T3 cells, SDS-PAGE and scanning densitometry; assay type: binding; design: endogenous in cells; host or cells: Swiss 3T3 cells (confluent, quiescent, intact); conditions: 2.5 h; read-out: Mr 75000-85000 protein % of control
T1 sequence (P21729 whole entry): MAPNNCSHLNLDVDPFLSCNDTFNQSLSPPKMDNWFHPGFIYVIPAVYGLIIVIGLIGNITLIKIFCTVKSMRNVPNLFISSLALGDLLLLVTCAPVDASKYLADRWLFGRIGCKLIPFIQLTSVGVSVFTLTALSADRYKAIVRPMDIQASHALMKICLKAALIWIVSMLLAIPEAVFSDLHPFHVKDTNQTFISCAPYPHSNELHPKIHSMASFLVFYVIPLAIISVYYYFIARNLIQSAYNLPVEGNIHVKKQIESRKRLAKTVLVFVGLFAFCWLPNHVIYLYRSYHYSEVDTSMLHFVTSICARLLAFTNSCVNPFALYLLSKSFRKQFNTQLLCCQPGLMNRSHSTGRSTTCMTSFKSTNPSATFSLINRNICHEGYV
Description: (§1) After 2.5 h the cells were washed three times at 15°C with phosphate buffered saline (PBS) ad then incubated for 15 min at 15°C In 1 ml of binding medium, pH 7.4 In the presence of the appropriate cross-linking agent at the concentration indicated. The cross-linking agents (EGS, DSS, DSP and BSCOES) were dissolved in dimethyl sulphoxide immediately prior to use and were added to medium to give a final concentration of dimethylsulphoxide of 1-2%. The cultures were rapidly rinsed twice with PBS at 4°C and solubilized in 0.1ml of 2 x sample buffer 0.2 M Tris-HCl, pH 6.8, 10% (w/v) glycerol, 6% sodium dodecyl sulphate (SDS) (w/v) 4% β-mercaptoethanol (v/v) and 2 mM ethylenediaminetetraacetic acid. Samples were immediately heated at 100°C for 3-5 min and analysed by either one or two-dimensional gel electrophoresis.
Slab gel electrophoresis was performed using 7.5% acrylamide in the separating gel ad 5% in the stacking gel, ad 0.1% SDS (31). […] The Mr 75000-85000 band from autoradiograms was scanned using a Joyce-Loebl double beam densitometer and the areas under specific peaks were measured with a Hewlett-Packard digitizer.
Confluent cultures of 3T3 cells were incubated with 5 nM ¹²⁵I-GRP in the presence of varying concentrations of non-radioactive ligand at 15°C for 2.5 h. […] The cells were then solubilized and samples were analyzed by SDS-PAGE. […]

Swiss 3T3 cells [2] = test: reversal of the inhibition of [¹²⁵I]EGF binding induced by GRP in Swiss 3T3 cells; assay type: cell-based, mouse; conditions: read-out: Half-maximal reversal of inhibition (of [¹²⁵I]EGF binding by GRP); [¹²⁵I]EGF 0.2 nM, GRP 3.6 nM, 1 hour, 37°C
Description: (§2) Figure 5. […] Left: Effects of antagonists on [Ca²⁺]i. Quiescent Swiss 3T3 cells grown on Cytodex 2 beads were washed twice with DMEM and incubated for 10 minutes with fura-2 tetracetoxymethyl ester at 1 »m, then washed three times and suspended in 2 ml of electrolyte solution (6) in the fluorimeter at 37°C and stirred. Fluorescence was recorded continuously in a Perkins-Elmer LS5 luminescence spectrometer with an excitation wavelength of 335 nm and emission wavelength of 510 nm. After a period of equilibration, the following additions were made: solvent, S; antagonist A at 5 »m, A, 5 and 20 »m, A, 20; antagonist D at 5»m, D, 5. […] Values are expressed as percentages of the specific binding obtained with [¹²⁵I]EGF alone at 0.2 nM. The non-specific binding was obtained by the addition of 500-fold excess of unlabelled EGF. Each point represents the mean of 6 determinations.

Swiss 3T3 cells [3] = test: GRP-stimulated rise in cytosolic Ca²⁺ concentration (fura-2 fluorescence) in Swiss 3T3 cells; assay type: cell-based, mouse; conditions: GRP (1 nM)
Description: as §2

GRP receptor = biological target: T2, GRP receptor (Mus musculus, UniProt P21729); test: specific [¹²⁵I]GRP binding to intact Swiss 3T3 cells; conditions: read-out: Half-maximal inhibition of binding
T2 construct: endogenous in cells; host or cells: Swiss 3T3 cells (mouse fibroblasts)
T2 sequence (P21729 whole entry): as above
Description: (§3) Cell culture procedure (33), assays of DNA synthesis by ³H-thymidine incorporation (34) ad ¹²⁵I-GRP binding to intact cells (13) were performed as described previously.
(§4) Figure 4. […] Values are expressed as percentage of the specific binding obtained in the absence of antagonists. […] Each point represents the mean of 3 determinations. […] Specific binding (B) is expressed in pmol/10⁶ cells and is shown in a double-reciprocal plot. Each point represents the mean of duplicate determinations. […] After 2 hours, the cultures were washed twice with binding medium then incubated in 1 ml containing 6 mM ethylene glycol bis (succinimidylsuccinate) (EGS) at pH 7.4 for 15 minutes at 15°C. The cultures were then washed twice with cold phosphate-buffered saline and solubilised in 0.1 ml of 2x sample buffer, then immediately heated at 100°C for 5 minutes and electrophoresed on a 10% polyacrylamide gel.

H417 = test: growth of SCLC cell line in serum-free medium (cell number, Coulter Counter); assay type: cell-based; conditions: antagonist at 150 »m, reversed by washing
Description: (§5) Figure 6. […] Stock cultures of cell lines H69, H128 and H417 were maintained in RPMI 1640 medium with 10% fetal bovine serum (heat inactivated) in a humidified atmosphere of 10% CO₂:90% air at 37°C. They were passaged every 7 days. Identical growth was obtained in the serum-free medium of RPMI 1640 supplemented with HITES (29) (hydrocortisone, 10 nM; insulin, 5 »g/ml; transferrin, 100 »g/ml; 17β-estradiol, 10 nM; sodium selenite, 30 nM) and 0.25% bovine serum albumin. […] Cell number was determined at intervals over 14 days in a Coulter Counter after disaggregation of cell clumps by syringing through 19G and 21G needles. Each point represents the mean of 3 determinations.

H128 = test: as above; assay type: cell-based; conditions: antagonist at 150 »m, reversed by washing
Description: as §5

Swiss 3T3 cells [4] = test: GRP-induced DNA synthesis ([³H]thymidine incorporation) in Swiss 3T3 cells; assay type: cell-based, mouse
Description: as §3
Figure 3. Inhibition of GRP-induced DNA synthesis by [DPro²]spantide (A) and [DPhe⁵]spantide (D). […] After 40 hours DNA synthesis was estimated by [³H]thymidine incorporation into acid-precipitable material. […] Each point represents the mean of duplicate determinations. […] Values are expressed as a percentage of [³H]thymidine incorporation obtained in the absence of antagonists (100% = 8.6 x 10⁵ cpm per dish). Each point represents the mean of 4 determinations.

Mr 75000-85000 protein [5] = biological target: T1, Mr 75000-85000 protein; test: ¹²⁵I-GRP affinity labelling (EGS cross-linking) of the Mr 75000-85000 protein in Swiss 3T3 cells, SDS-PAGE and scanning densitometry; assay type: binding; design: endogenous in cells; host or cells: Swiss 3T3 cells (mouse fibroblasts)
Description: as §1
Slab gel electrophoresis was performed using 7.5% acrylamide in the separating gel ad 5% in the stacking gel, ad 0.1% SDS (31). After electrophoresis gels were stained, destained and dried down onto paper for autoradiography with Fuji X-ray film (Fuji Photo Film Co. Ltd. Japan). Dried gels were exposed to film for 4-8 days. Two-dimensional gel electrophoresis was performed as described by O'Farrell (32) using isoelectric focusing in the 1st dimension and SDS-polyacrylamide gel electrophoresis (SDS-PAGE) (8% polyacrylamide) in the second dimension. The samples prepared for isoelectric focusing containing 1.4% LKB ampholytes, pH 5-7, plus 0.6% LKD ampholytes, pH 3.5-10, 6M urea, and 2% Nonidet P-40. The Mr 75000-85000 band from autoradiograms was scanned using a Joyce-Loebl double beam densitometer and the areas under specific peaks were measured with a Hewlett-Packard digitizer.
After this time some cells were washed four times with cold (4°C) PBS supplemented with 1 mg/ml BSA, solubilized and total cell associated radioactivity was then determined in a gamma counter. […] The cells were then solubilized and samples were analyzed by SDS-PAGE. After electrophoresis, gels were dried, exposed to film and scanned as described in Materials and Methods. The areas under the individual peaks for the Mr 75000-85000 protein are shown as a function of the concentration of the unlabelled peptide and are expressed as a percentage of the control. […] The level of the Mr 75000-85000 protein expressed in arbitrary units is shown as a function of the concentration of the labelled ligand. Inset: autoradiogram of the gel used for scanning; the Mr 75000-85000 and 160,000 bands are indicated by arrows. All other experimental details were as described in Materials and Methods.
as §4
After the incubation period cultures were treated with 6 mM EGS as described in Materials and Methods. Each value is expressed as a percentage of the level of the Mr 75000-85000 protein obtained with no additons (-). Other experimental details are as described in Materials and Methods.

H69 cells = test: growth of SCLC cell line in serum-free medium (cell number, Coulter Counter); assay type: cell-based
Description: as §5
Figure 7. Inhibition of SCLC growth in vitro by [DPro²]spantide and [DPhe⁵]spantide is concentration-dependent. Cultures of H69 cells were washed twice with RPMI 1640 medium then incubated in serum-free medium (as in Figure 6) in the absence (●) or presence of various concentrations of [DPro²]spantide (o,A) and [DPhe⁵]spantide (△,D). Cell number was determined in a Coulter Counter after disaggregation of cell clumps by syringing through 19G and 21 G needles. Samples were incubated for 13 days, when the controls (inset) had achieved 10-fold increase in number, indicated by the arrow. Each point represents the mean (± standard deviation) of 5 determinations.

| SMILES | remaining activity at 2 µM (Mr 75000-85000 protein [1]) [%] | EC50 (Swiss 3T3 cells [2]) [µM] | rise in [Ca²⁺]i caused by the addition of GRP (Swiss 3T3 cells [3]; antagonist at 5 »m) | rise in [Ca²⁺]i caused by the addition of GRP (Swiss 3T3 cells [3]; antagonist at 20 »m) | IC50 (GRP receptor) [µM] | rate of growth in serum-free medium (H417) | rate of growth in serum-free medium (H128) | IC50 (Swiss 3T3 cells [4]; GRP 3.6 nM, 40 hours, Figure 3 right, read-out: Half-maximal inhibition of DNA synthesis) [µM] | concentration of GRP required to produce half-maximal stimulation of DNA synthesis (Swiss 3T3 cells [4]; antagonist at 20 »m, Figure 3 left) | IC50 (Mr 75000-85000 protein [5]; read-out: Half-maximal inhibition (affinity-labelling of the Mr 75000-85000 protein)) [µM] | cross-linking of ¹²⁵I-GRP / level of the Mr 75000-85000 protein (in words) (Mr 75000-85000 protein [5]; summary of Table 1, saturating concentrations of the other mitogens) | Mr 75000-85000 protein % of control (Mr 75000-85000 protein [5]; ¹²⁵I-GRP (0.5 nM), 15°C, 2.5 h, 6 mM EGS, additions: GRP 360 nM, GRP (14-27) 30 nM, bombesin 30 nM, litorin 92 nM, neuromedin B 220 nM, [D-Arg¹,D-Pro²,D-Trp^7,9,Leu¹¹] substance P 100 »M, GRP (1-16) 3230 nM, PDGF 5 nM, EGF 83 nM, vasopressin 1000 nM, insulin 1 »g/ml, phorbol 12,13 dibutyrate 2000 nM, substance P 740 nM, substance K 880 nM, somatostatin 610 nM, neurotensin 600 nM) | rate of growth in serum-free medium (H69 cells; H69, antagonist at 150 »m, reversed by washing) | IC50 (H69 cells; H69 cells, serum-free medium, 13 days, read-out: half-maximal effect (inhibition of growth)) [µM] |
| --- | --- | --- | --- | --- | --- | --- | --- | --- | --- | --- | --- | --- | --- | --- |
| CCCC(=O)O[C@@H]1[C@@H](C)[C@@]2(O)[C@@H](C=C(CO)C[C@]3(O)C(=O)C(C)=C[C@@H]23)[C@@H]2C(C)(C)[C@]12OC(=O)CCC [Phorbol 12,13-dibutyrate] | 99 |  |  |  |  |  |  |  |  |  |  |  |  |  |
| CC(C)C[C@H](NC(=O)[C@H](CC(C)C)NC(=O)[C@@H](Cc1c[nH]c2ccccc12)NC(=O)[C@H](Cc1ccccc1)NC(=O)[C@@H](Cc1c[nH]c2ccccc12)NC(=O)[C@H](CCC(N)=O)NC(=O)[C@H](CCC(N)=O)NC(=O)[C@@H]1CCCN1C(=O)[C@H](CCCCN)NC(=O)[C@H]1CCCN1C(=O)[C@H](N)CCCNC(=N)N)C(N)=O [[DPro²]spantide, D-Arg-D-Pro-Lys-Pro-Gln-Gln-D-Trp-Phe-D-Trp-Leu-Leu-NH₂] (H-[dR][dP]KPQQ[dW]F[dW]LL-NH2) |  | 30 | not | prevented | 14 | abolished | abolished | 118 | only a slight effect | 20 | markedly inhibited | 9.7 % of control | abolished | 82 |
